Test results published in patent US20260027116A1, “Methods of Treating Chronic Graft-Versus-Host Disease Following Allogeneic Hematopoietic Stem Cell Transplantation” (Kadmon Corporation, LLC, priority 2022, published 2026).

Test system: lung function
Assay: Example 1: percent predicted FEV1 change from baseline
Format: in vivo, human
Protocol: Change From Baseline in Percent Predicted Forced Expiratory Volume in 1 Second (FEV1) at Each Specified Time Points. FEV1 was the volume of air exhaled from the lungs in the first second of a forced expiration as measured by spirometer. Baseline value was defined as valid and last non-missing value obtained within 28 days prior to participant receiving first study medication. EOT visit was performed within 3 days after the participant's last dose of study drug. […] Analysis was performed on mITT population. Here, ‘number analyzed’=participants with available data for each specified category. Here, ‘O’ in the number analyzed field signifies that none of the participants were available for the analysis at the specified time points.

For CC(C)NC(=O)COc1cccc(-c2nc(Nc3ccc4[nH]ncc4c3)c3ccccc3n2)c1 [Belumosudil, 2-{3-[4-(1H-indazol-5-ylamino)-2-quinazolinyl]phenoxy}-N-(propan-2-yl) acetamide], the “Change From Baseline in Percent Predicted Forced Expiratory Volume in 1 Second (FEV1), Mean (Standard Deviation)” value (Cohort 1: 200 mg QD, Cycle 3, Day 1) was 1.1 (4.8) percent predicted FEV1, the “Change From Baseline in Percent Predicted Forced Expiratory Volume in 1 Second (FEV1), Mean (Standard Deviation)” value (Cohort 1: 200 mg QD, Cycle 5, Day 1) was −3.3 (8.0) percent predicted FEV1 and the “Change From Baseline in Percent Predicted Forced Expiratory Volume in 1 Second (FEV1), Mean (Standard Deviation)” value (Cohort 1: 200 mg QD, Cycle 7, Day 1) was −3.5 (4.6) percent predicted FEV1. For the same compound, the “Change From Baseline in Percent Predicted Forced Expiratory Volume in 1 Second (FEV1), Mean (Standard Deviation)” value (Cohort 1: 200 mg QD, Cycle 9, Day 1) was −1.7 (6.8) percent predicted FEV1, the “Change From Baseline in Percent Predicted Forced Expiratory Volume in 1 Second (FEV1), Mean (Standard Deviation)” value (Cohort 1: 200 mg QD, Cycle 11, Day 1) was −4.3 (5.2) percent predicted FEV1 and the “Change From Baseline in Percent Predicted Forced Expiratory Volume in 1 Second (FEV1), Mean (Standard Deviation)” value (Cohort 1: 200 mg QD, Cycle 12, Day 1) was −2.0 (—) percent predicted FEV1. The “Change From Baseline in Percent Predicted Forced Expiratory Volume in 1 Second (FEV1), Mean (Standard Deviation)” value (Cohort 1: 200 mg QD, Cycle 13, Day 1) was −5.9 (9.3) percent predicted FEV1, the “Change From Baseline in Percent Predicted Forced Expiratory Volume in 1 Second (FEV1), Mean (Standard Deviation)” value (Cohort 1: 200 mg QD, Cycle 14, Day 1) was 2.0 (—) percent predicted FEV1 and the “Change From Baseline in Percent Predicted Forced Expiratory Volume in 1 Second (FEV1), Mean (Standard Deviation)” value (Cohort 1: 200 mg QD, Cycle 15, Day 1) was −6.7 (11.7) percent predicted FEV1. For the same compound, the “Change From Baseline in Percent Predicted Forced Expiratory Volume in 1 Second (FEV1), Mean (Standard Deviation)” value (Cohort 1: 200 mg QD, Cycle 16, Day 1) was 2.0 (—) percent predicted FEV1, the “Change From Baseline in Percent Predicted Forced Expiratory Volume in 1 Second (FEV1), Mean (Standard Deviation)” value (Cohort 1: 200 mg QD, Cycle 17, Day 1) was −5.3 (9.1) percent predicted FEV1 and the “Change From Baseline in Percent Predicted Forced Expiratory Volume in 1 Second (FEV1), Mean (Standard Deviation)” value (Cohort 1: 200 mg QD, Cycle 19, Day 1) was −5.2 (9.9) percent predicted FEV1. The “Change From Baseline in Percent Predicted Forced Expiratory Volume in 1 Second (FEV1), Mean (Standard Deviation)” value (Cohort 1: 200 mg QD, Cycle 25, Day 1) was −11.0 (15.6) percent predicted FEV1, the “Change From Baseline in Percent Predicted Forced Expiratory Volume in 1 Second (FEV1), Mean (Standard Deviation)” value (Cohort 1: 200 mg QD, Cycle 26, Day 1) was 0.0 (—) percent predicted FEV1 and the “Change From Baseline in Percent Predicted Forced Expiratory Volume in 1 Second (FEV1), Mean (Standard Deviation)” value (Cohort 1: 200 mg QD, Cycle 27, Day 1) was −6.5 (13.4) percent predicted FEV1. The “Change From Baseline in Percent Predicted Forced Expiratory Volume in 1 Second (FEV1), Mean (Standard Deviation)” value (Cohort 1: 200 mg QD, Cycle 29, Day 1) was −0.5 (9.2) percent predicted FEV1, the “Change From Baseline in Percent Predicted Forced Expiratory Volume in 1 Second (FEV1), Mean (Standard Deviation)” value (Cohort 1: 200 mg QD, Cycle 30, Day 1) was 3.0 (—) percent predicted FEV1 and the “Change From Baseline in Percent Predicted Forced Expiratory Volume in 1 Second (FEV1), Mean (Standard Deviation)” value (Cohort 1: 200 mg QD, Cycle 31, Day 1) was −3.5 (12.0) percent predicted FEV1. For the same compound, the “Change From Baseline in Percent Predicted Forced Expiratory Volume in 1 Second (FEV1), Mean (Standard Deviation)” value (Cohort 1: 200 mg QD, Cycle 32, Day 1) was 1.0 (—) percent predicted FEV1, the “Change From Baseline in Percent Predicted Forced Expiratory Volume in 1 Second (FEV1), Mean (Standard Deviation)” value (Cohort 1: 200 mg QD, Cycle 33, Day 1) was 5.0 (5.7) percent predicted FEV1 and the “Change From Baseline in Percent Predicted Forced Expiratory Volume in 1 Second (FEV1), Mean (Standard Deviation)” value (Cohort 1: 200 mg QD, Cycle 34, Day 1) was 2.0 (—) percent predicted FEV1. For the same compound, the “Change From Baseline in Percent Predicted Forced Expiratory Volume in 1 Second (FEV1), Mean (Standard Deviation)” value (Cohort 1: 200 mg QD, Cycle 35, Day 1) was 5.0 (0.0) percent predicted FEV1, the “Change From Baseline in Percent Predicted Forced Expiratory Volume in 1 Second (FEV1), Mean (Standard Deviation)” value (Cohort 1: 200 mg QD, Cycle 36, Day 1) was 3.0 (—) percent predicted FEV1 and the “Change From Baseline in Percent Predicted Forced Expiratory Volume in 1 Second (FEV1), Mean (Standard Deviation)” value (Cohort 1: 200 mg QD, Cycle 37, Day 1) was −1.0 (—) percent predicted FEV1. The “Change From Baseline in Percent Predicted Forced Expiratory Volume in 1 Second (FEV1), Mean (Standard Deviation)” value (Cohort 1: 200 mg QD, Cycle 38, Day 1) was 1.0 (—) percent predicted FEV1, the “Change From Baseline in Percent Predicted Forced Expiratory Volume in 1 Second (FEV1), Mean (Standard Deviation)” value (Cohort 1: 200 mg QD, Cycle 39, Day 1) was 10.0 (2.8) percent predicted FEV1 and the “Change From Baseline in Percent Predicted Forced Expiratory Volume in 1 Second (FEV1), Mean (Standard Deviation)” value (Cohort 1: 200 mg QD, Cycle 40, Day 1) was −1.0 (—) percent predicted FEV1. The “Change From Baseline in Percent Predicted Forced Expiratory Volume in 1 Second (FEV1), Mean (Standard Deviation)” value (Cohort 1: 200 mg QD, Cycle 41, Day 1) was 15.0 (—) percent predicted FEV1, the “Change From Baseline in Percent Predicted Forced Expiratory Volume in 1 Second (FEV1), Mean (Standard Deviation)” value (Cohort 1: 200 mg QD, Cycle 43, Day 1) was 16.0 (—) percent predicted FEV1 and the “Change From Baseline in Percent Predicted Forced Expiratory Volume in 1 Second (FEV1), Mean (Standard Deviation)” value (Cohort 1: 200 mg QD, Cycle 47, Day 1) was 5.0 (—) percent predicted FEV1. For the same compound, the “Change From Baseline in Percent Predicted Forced Expiratory Volume in 1 Second (FEV1), Mean (Standard Deviation)” value (Cohort 1: 200 mg QD, Cycle 48, Day 1) was 3.0 (—) percent predicted FEV1, the “Change From Baseline in Percent Predicted Forced Expiratory Volume in 1 Second (FEV1), Mean (Standard Deviation)” value (Cohort 1: 200 mg QD, Cycle 49, Day 1) was 8.0 (—) percent predicted FEV1 and the “Change From Baseline in Percent Predicted Forced Expiratory Volume in 1 Second (FEV1), Mean (Standard Deviation)” value (Cohort 1: 200 mg QD, Cycle 51, Day 1) was 8.0 (—) percent predicted FEV1. The “Change From Baseline in Percent Predicted Forced Expiratory Volume in 1 Second (FEV1), Mean (Standard Deviation)” value (Cohort 1: 200 mg QD, Cycle 52, Day 1) was 0.0 (—) percent predicted FEV1, the “Change From Baseline in Percent Predicted Forced Expiratory Volume in 1 Second (FEV1), Mean (Standard Deviation)” value (Cohort 1: 200 mg QD, Cycle 53, Day 1) was 9.0 (—) percent predicted FEV1 and the “Change From Baseline in Percent Predicted Forced Expiratory Volume in 1 Second (FEV1), Mean (Standard Deviation)” value (Cohort 1: 200 mg QD, Cycle 54, Day 1) was 4.0 (—) percent predicted FEV1. The “Change From Baseline in Percent Predicted Forced Expiratory Volume in 1 Second (FEV1), Mean (Standard Deviation)” value (Cohort 1: 200 mg QD, Cycle 55, Day 1) was 13.0 (—) percent predicted FEV1, the “Change From Baseline in Percent Predicted Forced Expiratory Volume in 1 Second (FEV1), Mean (Standard Deviation)” value (Cohort 1: 200 mg QD, Cycle 56, Day 1) was 4.0 (—) percent predicted FEV1 and the “Change From Baseline in Percent Predicted Forced Expiratory Volume in 1 Second (FEV1), Mean (Standard Deviation)” value (Cohort 1: 200 mg QD, Cycle 57, Day 1) was 13.0 (—) percent predicted FEV1. For the same compound, the “Change From Baseline in Percent Predicted Forced Expiratory Volume in 1 Second (FEV1), Mean (Standard Deviation)” value (Cohort 1: 200 mg QD, Cycle 58, Day 1) was 5.0 (—) percent predicted FEV1, the “Change From Baseline in Percent Predicted Forced Expiratory Volume in 1 Second (FEV1), Mean (Standard Deviation)” value (Cohort 1: 200 mg QD, Cycle 60, Day 1) was 4.0 (—) percent predicted FEV1 and the “Change From Baseline in Percent Predicted Forced Expiratory Volume in 1 Second (FEV1), Mean (Standard Deviation)” value (Cohort 1: 200 mg QD, Cycle 61, Day 1) was 10.0 (—) percent predicted FEV1. The “Change From Baseline in Percent Predicted Forced Expiratory Volume in 1 Second (FEV1), Mean (Standard Deviation)” value (Cohort 1: 200 mg QD, Cycle 62, Day 1) was 2.0 (—) percent predicted FEV1, the “Change From Baseline in Percent Predicted Forced Expiratory Volume in 1 Second (FEV1), Mean (Standard Deviation)” value (Cohort 1: 200 mg QD, Cycle 63, Day 1) was 13.0 (—) percent predicted FEV1 and the “Change From Baseline in Percent Predicted Forced Expiratory Volume in 1 Second (FEV1), Mean (Standard Deviation)” value (Cohort 1: 200 mg QD, Cycle 67, Day 1) was 14.0 (—) percent predicted FEV1. The “Change From Baseline in Percent Predicted Forced Expiratory Volume in 1 Second (FEV1), Mean (Standard Deviation)” value (Cohort 1: 200 mg QD, EOT) was −1.4 (9.0) percent predicted FEV1, the “Change From Baseline in Percent Predicted Forced Expiratory Volume in 1 Second (FEV1), Mean (Standard Deviation)” value (Cohort 2: 200 mg BID, Cycle 3, Day 1) was −1.8 (7.1) percent predicted FEV1 and the “Change From Baseline in Percent Predicted Forced Expiratory Volume in 1 Second (FEV1), Mean (Standard Deviation)” value (Cohort 2: 200 mg BID, Cycle 5, Day 1) was −5.0 (6.5) percent predicted FEV1. For the same compound, the “Change From Baseline in Percent Predicted Forced Expiratory Volume in 1 Second (FEV1), Mean (Standard Deviation)” value (Cohort 2: 200 mg BID, Cycle 7, Day 1) was −2.6 (9.4) percent predicted FEV1 and the “Change From Baseline in Percent Predicted Forced Expiratory Volume in 1 Second (FEV1), Mean (Standard Deviation)” value (Cohort 2: 200 mg BID, Cycle 8, Day 1) was 1.0 (—) percent predicted FEV1.
